The values below come from patent US8410161B2, “Thioxanthone ring system derivatives” (National Defense Medical Center, priority 2010, dated 2013).

Holding throughout (type): cell-based
In one data set the test system is A3 cell lines. Put plainly: MTT assay, A3 cell lines (lung cancer stem cell). The source says:
Please to FIG. 4B, various cell viabilities of the A3 cell lines can be obtained through the MTT assay and illustrated in FIG. 4B while the compounds No. 1˜30 are used to treat A3 cell lines, wherein A3 cell lines are lung cancer stem cell.

Data set [1] can be described thus: MTT assay, HEL299 fibroblast. The settings on record: human. The source says: Please refer to FIG. 4C, various cell viabilities of the HEL299 cell lines can be obtained through the MTT assay while the compounds No. 1˜30 are used to treat HEL299 cell lines, wherein HEL299 cell lines are fibroblast.
In general terms: Tetrazolium assays rely on reduction of a dye to a coloured formazan, in cell work by metabolically active cells.

The next data set concerns A control cell lines. In words: MTT assay, A control cell lines (lung cancer cell). From the text: Please refer to Table 1 and FIGS. 4A-4C. According to a MTT assay (Table 1), various cell viabilities of the A control cell lines can be obtained and illustrated in FIG. 4A while the compounds No. 2˜30 are used to treat A control cell lines, wherein A control cell lines are lung cancer cell.

`O=c1c2ccccc2sc2c(Cl)c(Cl)ccc12` [No. 1, 3,4-dichloro-9H-thioxanthen-9-one]: the “cell viabilities of A3 cell lines (MTT assay)” value in the data set with A3 cell lines was found to be 83.7 ± 6.22%. The viability – broadly, a read-out of living cells in per cent, often relative to untreated cells – in data set [1] turned out to be 68.5 ± 12%.

As for `CCSc1ccc2c(=O)c3ccccc3sc2c1Cl` [No. 2, 4-Chloro-3-(ethylthio)-9H-thioxanthen-9-one], the “cell viabilities of A control cell lines (MTT assay)” value in the data set with A control cell lines was found to be 85.1 ± 2.74%. For the same compound, in the data set on A3 cell lines, the “cell viabilities of A3 cell lines (MTT assay)” value is 72.7 ± 2.60%. Further, in data set [1], the viability is 34 ± 7.95%.

On to `O=c1c2ccccc2sc2c(Cl)c(SC3CCCC3)ccc12` [No. 5, 4-Chloro-3-(cyclopentylthio)-9H-thioxanthen-9-one], for which the “cell viabilities of A control cell lines (MTT assay)” value in the data set with A control cell lines worked out at 108 ± 7.69%. In the data set on A3 cell lines, the “cell viabilities of A3 cell lines (MTT assay)” value is given as 107 ± 7.17%. Also, in data set [1], the viability is 89.5 ± 13.7%.

Regarding `Cc1ccccc1Sc1ccc2c(=O)c3ccccc3sc2c1Cl` [No. 7, 4-Chloro-3-(o-tolylthio)-9H-thioxanthen-9-one], the “cell viabilities of A control cell lines (MTT assay)” value with A control cell lines is 103 ± 2.86%. For the same compound, the “cell viabilities of A3 cell lines (MTT assay)” value in the data set with A3 cell lines came to 81.6 ± 4.98%. The viability in data set [1] is 91.1 ± 18.7%.

With `Cc1cccc(Sc2ccc3c(=O)c4ccccc4sc3c2Cl)c1` [No. 8, 4-Chloro-3-(m-tolylthio)-9H-thioxanthen-9-one], the “cell viabilities of A control cell lines (MTT assay)” value in the data set on A control cell lines stood at 120 ± 1.51%. Further, the “cell viabilities of A3 cell lines (MTT assay)” value in the data set with A3 cell lines is listed as 116 ± 1.49%. For the same compound, the viability in data set [1] worked out at 74.8 ± 4.04%.

Take `Cc1ccc(Sc2ccc3c(=O)c4ccccc4sc3c2Cl)cc1` [No. 9, 4-Chloro-3-(p-tolylthio)-9H-thioxanthen-9-one]: in the data set on A control cell lines, the “cell viabilities of A control cell lines (MTT assay)” value was found to be 119 ± 4.69%. In the data set with A3 cell lines, the “cell viabilities of A3 cell lines (MTT assay)” value stood at 115 ± 4.55%. For the same compound, the viability in data set [1] worked out at 98.4 ± 12.8%.

Take `Cc1ccc(C)c(Sc2ccc3c(=O)c4ccccc4sc3c2Cl)c1` [No. 11, 4-Chloro-3-(2,5-dimethylphenylthio)-9H-thioxanthen-9-one]: in the data set with A control cell lines, the “cell viabilities of A control cell lines (MTT assay)” value turned out to be 105 ± 2.56%. Besides, the “cell viabilities of A3 cell lines (MTT assay)” value in the data set with A3 cell lines was 96.9 ± 5.20%. The viability in data set [1] turned out to be 94.4 ± 10.1%.

`Cc1ccc(Sc2ccc3c(=O)c4ccccc4sc3c2Cl)cc1C` [No. 13, 4-Chloro-3-(3,4-dimethylphenylthio)-9H-thioxanthen-9-one]: the “cell viabilities of A control cell lines (MTT assay)” value in the data set on A control cell lines is on record as 113 ± 5.86%. Besides, in the data set on A3 cell lines, the “cell viabilities of A3 cell lines (MTT assay)” value was determined as 112 ± 1.86%. Also, the viability in data set [1] was found to be 112 ± 11.2%.

Regarding `COc1ccccc1Sc1ccc2c(=O)c3ccccc3sc2c1Cl` [No. 15, 4-Chloro-3-(2-methoxylphenylthio)-9H-thioxanthen-9-one], the “cell viabilities of A control cell lines (MTT assay)” value with A control cell lines is recorded as 85.4 ± 9.66%. Moreover, in the data set on A3 cell lines, the “cell viabilities of A3 cell lines (MTT assay)” value turned out to be 99.0 ± 3.41%. For the same compound, the viability in data set [1] was determined as 73 ± 12.3%.

Turning to `COc1ccc(Sc2ccc3c(=O)c4ccccc4sc3c2Cl)cc1` [No. 17, 4-Chloro-3-(4-methoxylphenylthio)-9H-thioxanthen-9-one], the “cell viabilities of A control cell lines (MTT assay)” value in the data set on A control cell lines is given as 97.1 ± 8.74%. In addition, the “cell viabilities of A3 cell lines (MTT assay)” value in the data set on A3 cell lines turned out to be 89.4 ± 1.88%. Also, the viability in data set [1] amounted to 109 ± 14.5%.

For `CCc1ccccc1Sc1ccc2c(=O)c3ccccc3sc2c1Cl` [No. 18, 4-Chloro-3-(2-ethylphenylthio)-9H-thioxanthen-9-one], in the data set on A control cell lines, the “cell viabilities of A control cell lines (MTT assay)” value is listed as 73.2 ± 10.2%. Also, in the data set on A3 cell lines, the “cell viabilities of A3 cell lines (MTT assay)” value is on record as 77.2 ± 5.23%. Further, the viability in data set [1] came to 104 ± 14.2%.

For the compound `CCOc1cccc(Sc2ccc3c(=O)c4ccccc4sc3c2Cl)c1` [No. 19, 4-Chloro-3-(3-ethoxylphenylthio)-9H-thioxanthen-9-one], the “cell viabilities of A control cell lines (MTT assay)” value in the data set with A control cell lines is on record as 91.3 ± 1.74%. Further, the “cell viabilities of A3 cell lines (MTT assay)” value with A3 cell lines came to 98.2 ± 4.79%. Further, the viability in data set [1] stood at 90.3 ± 14.4%.

`CC(C)c1ccc(Sc2ccc3c(=O)c4ccccc4sc3c2Cl)cc1` [No. 20, 4-Chloro-3-(4-isopropylphenylthio)-9H-thioxanthen-9-one]: the “cell viabilities of A control cell lines (MTT assay)” value in the data set on A control cell lines turned out to be 74.6 ± 11.2%. Also, the “cell viabilities of A3 cell lines (MTT assay)” value in the data set on A3 cell lines is on record as 93.9 ± 6.97%. Moreover, the viability in data set [1] came to 110 ± 14.3%.

With `CC(C)c1ccccc1Sc1ccc2c(=O)c3ccccc3sc2c1Cl` [No. 21, 4-Chloro-3-(2-isopropylphenylthio)-9H-thioxanthen-9-one], in the data set with A control cell lines, the “cell viabilities of A control cell lines (MTT assay)” value is 83.5 ± 12.6%. Further, in the data set on A3 cell lines, the “cell viabilities of A3 cell lines (MTT assay)” value was determined as 93.7 ± 6.01%. In data set [1], the viability turned out to be 107 ± 5.4%.

Turning to `O=c1c2ccccc2sc2c(Cl)c(Sc3ccc(Br)cc3)ccc12` [No. 22, 3-(4-Bromophenylthio)-4-chloro-9H-thioxanthen-9-one], in the data set with A control cell lines, the “cell viabilities of A control cell lines (MTT assay)” value was 104 ± 1.89%. The “cell viabilities of A3 cell lines (MTT assay)” value in the data set on A3 cell lines is 70.8 ± 3.86%. Besides, the viability in data set [1] turned out to be 66.1 ± 0.66%.

Consider `O=c1c2ccccc2sc2c(Cl)c(Sc3cccc(Cl)c3)ccc12` [No. 30, 4-Chloro-3-(3-chlorophenylthio)-9H-thioxanthen-9-one], for which the “cell viabilities of A control cell lines (MTT assay)” value in the data set on A control cell lines is 97.7 ± 1.46%. The “cell viabilities of A3 cell lines (MTT assay)” value with A3 cell lines worked out at 92.2 ± 6.17%. The viability in data set [1] was 101 ± 3.7%.
